Results on one molecule are retold here after US20070027130A1, “Tricyclic 6-alkylidene-penem beta-lactamase inhibitors and beta-lactam antibiotic combination: a broad spectrum antibiotic” (priority 2005, published 2007).

Each structure is given as a SMILES string. ≈ marks a conversion by molar mass, not a printed value.

What all share (assay): MIC microbroth dilution
What all share (assay type): cell-based
For orientation: In broth dilution the organism is exposed to a series of concentrations in liquid medium.

For assay [1], the system named is K. pn GC 1963 (TEM-10 + SHV-1 + SHV-ESBL). To be noted: Klebsiella pneumoniae, β-lactamase class A, MHBII, 35° C. 18 hr, read-out: Minimal Inhibitory Concentration. In a few lines: (§1)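 In vitro activity was measured by NCCLS broth microdilution in MHBII. Incubation ran at 35 C for 18-22 hours under ambient air.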
For assay [2], the system named is E. coli GC 2804 (imp). Particulars: Escherichia coli, 18 h, read-out: Minimal Inhibitory Concentration. In short, it runs like this:
as §1

For assay [3], the system named is E. cloacae GC 6991 (AmpC). Particulars: Enterobacter cloacae, β-lactamase class C, MHBII, 35° C. 18 hr, read-out: Minimal Inhibitory Concentration. In short, it runs like this:
as §1

Assay [4] concerns P. aeruginosa PT 9025 PTZ-R. To be noted: Pseudomonas aeruginosa, PT9025PTZR, 18 h, read-out: Minimal Inhibitory Concentration. In short, it runs like this:
as §1

In assay [5] the test system is E. coli ATCC 35218 TEM-1. To be noted: Escherichia coli, ATCC35218, 18 h, read-out: Minimal Inhibitory Concentration. In a few lines:
as §1

Assay [6] has as its system E. cloacae GC 7052 SHV-5, Amp C inducable. Particulars: Enterobacter cloacae, β-lactamase class A (ESBL), MHBII, 35° C. 18 hr, read-out: Minimal Inhibitory Concentration. In short, it runs like this:
as §1

Assay [7] deals with K. pneumoniae GC 7824 Fox 5. Particulars: Klebsiella pneumoniae, GC7824FOX5, β-lactamase class C, MHBII, 35° C. 18 hr, read-out: Minimal Inhibitory Concentration. In short, it runs like this:
as §1

In assay [8] the test system is K. pneumoniae GC 7632 TEM-1 KPC-2, SHV-7, SHV-12. To be noted: Klebsiella pneumoniae, β-lactamase class A, A (Cb'ase), A (ESBL), MHBII, 35° C. 18 hr, read-out: Minimal Inhibitory Concentration. In a few lines:
as §1

On to `CO/N=C(\C(=O)N[C@@H]1C(=O)N2C(C(=O)[O-])=C(C[N+]3(C)CCCC3)CS[C@H]12)c1csc(N)n1` [Cefepime], for which the MIC in assay [1] was greater than 16 µg/mL; in assay [2], 0.03 µg/mL (≈ 0.0624 µM); in assay [3], 0.5 µg/mL (≈ 1.04 µM); in assay [4], greater than 16 µg/mL; in assay [5], 0.03 µg/mL (≈ 0.0624 µM); in assay [6] it was 8 µg/mL (≈ 16.6 µM). For the same molecule, the MIC is 2 µg/mL (≈ 4.16 µM) in assay [7] and greater than 16 µg/mL in assay [8].
